From patent publication US20120328735A1, “PROCESS FOR PREPARING CASEIN-DERIVED PEPTIDES BY FERMENTATION OF LACTIC ACID BACTERIA” (priority 2011, published 2012)
Ends that are not written are not given here.

Experiments:
[1] = tested on: scopolamine-induced amnesia; assay: Y-shaped maze test, spontaneous alternation behavior, scopolamine-induced amnesia; format: in vivo; details: male ddY mice, scopolamine 1 mg/kg s.c.
Method: Male ddY mice (about 7 weeks old) were used (n=15 to 75), and provided with food and water ad libitum. Asn-Ile-Pro-Pro-Leu-Thr-Gln-Thr-Pro-Val-Val-Val-Pro-Pro-Phe-Leu-Gln-Pro-Glu (SEQ ID NO: 1) was used as a test substance in amounts of 0.05 nmol/kg body weight (0.1 μg/kg body weight), 0.5 nmol/kg body weight (1 μg/kg body weight), 1.5 nmol/kg body weight (3 μg/kg body weight), 5 nmol/kg body weight (10 μg/kg body weight), 50 nmol/kg body weight (100 μg/kg body weight), and 500 nmol/kg body weight (1,000 μg/kg body weight). The test substance was administered as a single dose orally to mice 60 minutes before performing a Y-shaped maze test for evaluating spontaneous alternation behavior. Thirty minutes before performing the Y-shaped maze test, scopolamine was subcutaneously administered in an amount of 1 mg/kg body weight into the back to induce brain dysfunction (memory disorder and/or cognition disorder) in mice. In the Y-shaped maze test, as an experiment device, a Y-shaped maze was used in which the length for each arm was 40 cm; the wall height was 12 cm; the floor width was 3 cm; the upper part width was 10 cm; and three arms were connected to each other at an angle of 120°. Each mouse was placed in the end of any of the arms of the Y-shaped maze and allowed to explore freely in the maze over 8 minutes, and the sequence of the arms to which the mouse moved was recorded. The number of movements of the mouse to the arms within the measurement time was counted and used as the total number of entries; in the sequence, the combination in which three different arms were selected in succession (for example, with the three arms respectively called A, B, and C, if the sequence of the aims entered is ABCBACACB, the count is 4 inclusive of overlapping) was investigated, and the count number was used as the number of spontaneous alternation behaviors. The change in spontaneous alternation behavior (%) was calculated by dividing the number of spontaneous alternation behaviors by a number obtained by subtracting 2 from the total number of entries, and multiplying the resultant number by 100, and the percentage was used as an indicator of the spontaneous alternation behavior. […] The measured values were expressed as mean±standard error for each group. The significance of difference between the control group and the scopolamine control group was tested by Student's t-test. The significance of difference between the scopolamine control group and the peptide-administered group was tested by Dunnett's multiple comparison test after one-way analysis of variance.
Male ddY mice (about 7 weeks old) were used (n=15 to 45), and provided with food and water ad libitum. As test substances, Asn-Ile-Pro-Pro-Leu-Thr-Gln-Thr-Pro-Val-Val-Val-Pro-Pro-Phe-Leu-Gln-Pro-Glu (SEQ ID NO: 1) at 50 nmol/kg body weight (100 μg/kg body weight), or […]([…]; SEQ ID NO: 2) at 50 nmol/kg body weight (120 μg/kg body weight), or Ile-Pro-Pro-Leu-Thr-Gln-Thr-Pro-Val-Val-Val-Pro-Pro-Phe-Leu-Gln-Pro-Glu (IPPLTQTPVVVPPFLQPE; SEQ ID NO: 7) at 50 nmol/kg body weight (100 μg/kg body weight), or Asn-Ile-Pro-Pro-Leu-Thr-Gln-Thr-Pro-Val-Val-Val-Pro-Pro-Phe-Leu-Gln-Pro (NIPPLTQTPVVVPPFLQP; SEQ ID NO: 8) at 50 nmol/kg body weight (100 μg/kg body weight), or Thr-Gln-Thr-Pro-Val-Val-Val-Pro-Pro-Phe (TQTPVVVPPF; SEQ ID NO: 9) at 50 nmol/kg body weight (50 μg/kg body weight) were used. The percentage of change in the spontaneous alternation behavior was determined as described in Example 4, and used as an indicator of the spontaneous alternation behavior. The measured values were expressed as mean±standard error for each group. The significance of difference between the control group and the scopolamine control group was tested by Student's t-test. The significance of difference between the scopolamine control group and each peptide-administered group was tested by Dunnett's multiple comparison test after one-way analysis of variance. […]

memory retention = assay: novel object recognition test for evaluating memory retention; format: in vivo; details: male ddY mice; single oral dose 500 nmol/kg body weight (1,000 μg/kg) 60 min before training trial; retention trial 48 hours later; FIG. 5
Method: Male ddY mice (about 7 weeks old) were used (n=14 to 15), and provided with food and water ad libitum. As a test substance, 500 nmol/kg body weight (1,000 μg/kg body weight) of Asn-Ile-Pro-Pro-Leu-Thr-Gln-Thr-Pro-Val-Val-Val-Pro-Pro-Phe-Leu-Gln-Pro-Glu (SEQ ID NO: 1) was used. The test substance was administered as a single dose orally to mice 60 minutes before performing a novel object recognition test for evaluating memory retention. In the novel object recognition test, a 30×30×30 cm box was used as an experiment device. As a conditioning operation, a mouse was placed in an experiment device in which a floorcloth was laid for 5 minutes, and allowed to explore freely in the device. A training trial was performed the day following the conditioning operation. […] Sixty minutes after orally administering the test substance or water, a mouse was placed in the experiment device for 5 minutes, and the time (second) was measured during which the mouse explored by approaching each object to be within 1 cm therefrom. […] (However, the state in which a mouse rides on an object is excluded.) The percentages of the times were determined during which two objects were explored in each of the training trial and the retention trial. The percentage (%) of the exploration time for each object was expressed as mean±standard error for each of the groups. […]

[2] = single oral dose 50 nmol/kg body weight, vs scopolamine control group, FIG. 3, FIG. 6
[3] = single oral dose 500 nmol/kg body weight, vs scopolamine control group, FIG. 4, FIG. 7, FIG. 9

Sequence	amnesia-preventing action (change in spontaneous alternation behavior) [1, 2]	amnesia-preventing action (change in spontaneous alternation behavior) [1, 3]	other results
IPPLTQTPVVVPPFLQPE [SEQ ID NO: 7]	shown to have amnesia-preventing actions	–	–
LQSWMHQPHQPLPPTVMFPPQSVL [SEQ ID NO: 4]	–	shown to have amnesia-preventing actions	–
LTQTPVVVPPFLQPE [SEQ ID NO: 13]	–	shown to have amnesia-preventing actions	–
MHQPHQPLPPTVMFPPQSVL [SEQ ID NO: 16]	–	shown to have amnesia-preventing actions	–
NIPPLTQTPVVVPPFLQP [SEQ ID NO: 8]	significant difference compared to the scopolamine control group could not be confirmed	–	–
NIPPLTQTPVVVPPFLQPE [SEQ ID NO: 1]	shown to have amnesia-preventing actions	shown to have amnesia-preventing actions	memory-enhancing action (percentage of exploration time for novel object) (memory retention): shown to have a memory-enhancing action; amnesia-preventing action (change in spontaneous alternation behavior) ([1]; single oral dose 60 min before test, 0.05 nmol/kg body weight to 500 nmol/kg body weight (0.1 to 1,000 μg/kg), FIG. 2): shown to have an amnesia-preventing action
NIPPLTQTPVVVPPFLQPEVM [SEQ ID NO: 2]	shown to have amnesia-preventing actions	–	–
PLTQTPVVVPPFLQPE [SEQ ID NO: 12]	–	shown to have amnesia-preventing actions	–
PPLTQTPVVVPPFLQPE [SEQ ID NO: 10]	–	shown to have amnesia-preventing actions	–
PVVVPPFLQPE [SEQ ID NO: 14]	–	shown to have amnesia-preventing actions	–
SWMHQPHQPLPPTVMFPPQ [SEQ ID NO: 17]	–	significant difference could not be confirmed	–
SWMHQPHQPLPPTVMFPPQSVL [SEQ ID NO: 3]	–	shown to have amnesia-preventing actions	amnesia-preventing action (change in spontaneous alternation behavior) ([1]; single oral dose 150 nmol/kg body weight to 500 nmol/kg body weight (380 to 1,280 μg/kg), FIG. 8): shown to have an amnesia-preventing action
TQTPVVVPPF [SEQ ID NO: 9]	significant difference compared to the scopolamine control group could not be confirmed	–	–
TQTPVVVPPFLQPE [SEQ ID NO: 11]	shown to have an amnesia-preventing action	–	–
VVVPPFLQPE [SEQ ID NO: 15]	–	shown to have amnesia-preventing actions	–
